Where two headings read alike, the source gives them in different places.
Tests used:
[1] = system: DND-41 (acute lymphoblastic leukemia); assay: Cytostatic activity (cell proliferation); assay type: cell-based
Method: (§1) The 50% cytostatic inhibitory concentration (IC50) causing a 50% decrease in cell proliferation was determined for all obtained compounds toward 9 cancerous cell lines, i.e.,: Capan-1 (pancreatic adenocarcinoma), Hap1 (chronic myeloid leukemia), HCT-116 (colorectal carcinoma), NCI-H460 (lung carcinoma), DND-41 (acute lymphoblastic leukemia), HL-60 (acute myeloid leukemia), K-562 (chronic myeloid leukemia), MM.1S (multiple myeloma), Z-138 non-Hodgkin lymphoma), as well as normal retina (non-cancerous) cells (hTERT RPE-1). Docetaxel, etoposide and stauroporine were used as the reference compounds.
(§2) All assays were performed in 96-well microtiter plates. To each well was added (5–7.5) × 10^4 tumor cells and a given amount of the tested compound. The cells were allowed to proliferate at 37 °C in a humidified, CO2-controlled atmosphere. At the end of the incubation period, the cells were counted in a Coulter counter. The IC50 (50% inhibitory concentration) was defined as the concentration of the compound that inhibited cell proliferation by 50%.

[2] = system: NCI-H460 (lung carcinoma); assay: Cytostatic activity (cell proliferation); assay type: cell-based
Method: as §1, §2

[3] = system: HCT-116 (colorectal carcinoma); assay: Cytostatic activity (cell proliferation); assay type: cell-based
Method: as §1, §2

[4] = system: hTERT RPE-1 normal retina (non-cancerous) cells; assay: Cytostatic activity (cell proliferation); assay type: cell-based
Method: as §1, §2

[5] = system: Hap1 (chronic myeloid leukemia); assay: Cytostatic activity (cell proliferation); assay type: cell-based
Method: as §1, §2

[6] = system: Capan-1 (pancreatic adenocarcinoma); assay: Cytostatic activity (cell proliferation); assay type: cell-based
Method: as §1, with “RPE-1).” for “RPE-1). Docetaxel, etoposide and stauroporine were used as the reference compounds.”
as §2, with “counter.” for “counter. The IC50 (50% inhibitory concentration) was defined as the concentration of the compound that inhibited cell proliferation by 50%.”

S. aureus ATCC 25923 = assay: Oxacillin MIC reduction (adjuvant) microdilution assay; assay type: cell-based, Staphylococcus aureus; settings: for Activity Gain [A]: MIC(OXA)/MIC(OXA+Cpd), compound 0.5 mM, adjuvant activity if A ≥ 4
Method: (§3) Since the lack of direct antibacterial activity of the obtained azetidinones was observed, all isomers trans and cis were investigated on their “adjuvant” properties, i.e., an ability to enhance the effectiveness of antibiotics against S. aureus strains. Thus, the compounds were tested in combination with the known β-lactam antibiotic, oxacillin, in the microdilution assays. The ability of the tested azetidinones to reduce minimum inhibitory concentration (MIC) of oxacillin against both, the referenced and the resistant S. aureus strains, was assessed.
(§4) The in-vitro antibacterial property and the capacity of tested compounds to increase the efficacy of antibiotics were evaluated in two Staphylococcus aureus strains, i.e., the reference clonal complex 5 (CC5) methicillin-susceptible (MSSA) strain ATCC 25923, and the methicillin-resistant (MRSA) extensively drug-resistant (XDR) clinical isolate HEMSA-5 [46].
(§5) In order to assess the increase of antibiotic efficacy, the assays were conducted by determining if/to what extent the investigated compounds reduce MICs of oxacillin by means of a serial dilution broth microplate method, in accordance with the CLSI requirements. The concentrations of compounds used in the MICs reduction assay were no greater than 1/4 of their respective MICs to ensure that cell viability was not affected by the intrinsic antibacterial activity of the molecules. Serial two-fold dilutions of oxacillin (Sigma-Aldrich; St. Louis, MI, USA, cat. no. 28221), were prepared in […] of the Mueller–Hinton broth (Merck; Darmstadt, Germany, cat. no. 1102930500). Suitable concentrations of the compounds (total volume […]) were then added. Bacterial suspensions were diluted to OD ¼ 0.5. The resulting suspensions were then diluted 1:100 and added in the volume of […] into the oxacillin serial dilutions with the compounds. The results were read after 20-h incubation at 37 °C.
(§6) The ability of compounds to improve antibiotic efficacy was expressed as the activity gain [A] parameter calculated according to the formula given in Figure 10.
(§7) Figure 10 Activity gain. MICAnt corresponds to the MIC of oxacillin in the absence of a compound tested and MICAnt + Comp refers to the MIC of oxacillin paired with a compound tested.

MRSA HEMSA 5 = assay: as above; assay type: cell-based, Staphylococcus aureus; settings: for Activity Gain [A]: MIC(OXA)/MIC(OXA+Cpd), compound 0.5 mM, adjuvant activity if A ≥ 4
Method: as §3, §4, §5, §6, §7

[7] = oxacillin MIC in presence of 0.5 mM compound

MIC (S. aureus ATCC 25923; Staphylococcus aureus, ATCC25923, oxacillin alone, read-out: OXA MIC) [µg/mL] | MIC (MRSA HEMSA 5; Staphylococcus aureus, oxacillin alone, read-out: OXA MIC) [µg/mL] | SMILES | IC50 ([1]; DND41) [µM] | IC50 ([2]; Homo sapiens, NCI-H460) [µM] | IC50 ([3]; Homo sapiens, HCT-116) [µM] | IC50 ([4]; hTERT-RPE1) [µM] | IC50 ([5]; Homo sapiens, HAP1) [µM] | IC50 ([6]; Homo sapiens, CAPAN-1) [µM] | Activity Gain [A] (S. aureus ATCC 25923) | Activity Gain [A] (MRSA HEMSA 5) | IC50 [1] [µM] | IC50 [2] [µM] | IC50 [3] [µM] | IC50 [4] [µM] | IC50 [5] [µM] | IC50 [6] [µM] | OXA+ Cpd MIC (S. aureus ATCC 25923; [7]) [µg/mL] | OXA+ Cpd MIC (MRSA HEMSA 5; [7]) [µg/mL]
– | – | CCOP(=O)(OCC)[C@@H]1[C@H](c2ccc(F)cc2F)C(=O)N1Cc1ccccc1 (relative stereo) [cis-11e, cis-N-benzyl-3-(2,4-difluorophenyl)-4-(diethoxyphosphoryl)azetidin-2-one] | > 100 | 43 | > 100 | > 100 | > 100 | 48.9 | 0.5 | 1 | – | – | – | – | – | – | – | –
– | – | CCOP(=O)(OCC)[C@H]1[C@H](c2ccccc2)C(=O)N1C (relative stereo) [trans-10a, trans-N-methyl-3-phenyl-4-(diethoxyphosphoryl)azetidin-2-one] | – | – | – | – | – | – | 1 | 1 | > 100 | 54.6 | > 100 | > 100 | > 100 | 46.2 | 0.5 | 512
– | – | CCOP(=O)(OCC)[C@H]1[C@H](c2ccccc2F)C(=O)N1C (relative stereo) [trans-10b, trans-N-methyl-3-(2-fluorophenyl)-4-(diethoxyphosphoryl)azetidin-2-one] | > 100 | 34.8 | 44.1 | > 100 | 38.7 | 53.1 | 0.5 | 1 | – | – | – | – | – | – | – | –
– | – | CCOP(=O)(OCC)[C@H]1[C@H](c2cccc(F)c2)C(=O)N1C (relative stereo) [trans-10c, trans-N-methyl-3-(3-fluorophenyl)-4-(diethoxyphosphoryl)azetidin-2-one] | > 100 | 62.8 | > 100 | > 100 | 69.1 | 19.6 | 0.5 | 1 | – | – | – | – | – | – | – | –
– | – | CC(=O)O[C@@]12CO[C@@H]1C[C@H](O)[C@@]1(C)C(=O)[C@H](O)C3=C(C)[C@@H](OC(=O)[C@H](O)[C@@H](NC(=O)OC(C)(C)C)c4ccccc4)C[C@@](O)([C@@H](OC(=O)c4ccccc4)[C@H]21)C3(C)C [Docetaxel, reference compound] | 1.63 | 0.89 | 0.25 | 25 | 1.19 | 0.95 | – | – | – | – | – | – | – | – | – | –
– | – | COc1cc([C@@H]2c3cc4c(cc3[C@@H](O[C@@H]3O[C@@H]5CO[C@@H](C)O[C@H]5[C@H](O)[C@H]3O)[C@H]3COC(=O)[C@H]23)OCO4)cc(OC)c1O [Etoposide, reference compound] | 0.06 | 1.35 | – | 0.23 | 0.04 | 0.15 | – | – | – | – | – | – | – | – | – | –
– | – | CN[C@@H]1C[C@H]2O[C@@](C)([C@@H]1OC)n1c3ccccc3c3c4c(c5c6ccccc6n2c5c31)C(=O)NC4 [Stauroporine, reference compound] | – | – | – | – | – | – | – | – | 21.5 | 11.5 | 0.09 | 0.25 | 3.55 | – | – | –
0.5 | 512 | Cc1onc(-c2ccccc2)c1C(=O)N[C@@H]1C(=O)N2[C@@H]1SC(C)(C)[C@@H]2C(=O)O [oxacillin, reference compound] | – | – | – | – | – | – | – | – | – | – | – | – | – | – | – | –

Reference: article PMC8348901, “Novel N-Substituted 3-Aryl-4-(diethoxyphosphoryl)azetidin-2-ones as Antibiotic Enhancers and Antiviral Agents in Search for a Successful Treatment of Complex Infections” (International Journal of Molecular Sciences, 2021)
